This note sets out measurements from PubChem BioAssay AID1259407 (Chemical Carcinogenesis Research Information System (CCRIS), 2018).

For the data set, the system named is CCRIS mutagenicity, Ames/micronucleus/aberration tests. Description: CCRIS mutagenicity studies.
The mark [1] stands for this setting: Test System: AMES SALMONELLA TYPHIMURIUM, Strain/Indicator: TA98, Metabolic Activation: NONE, Method: PREINCUBATION
The mark [2] stands for this setting: Test System: AMES SALMONELLA TYPHIMURIUM, Strain/Indicator: TA98, Metabolic Activation: RAT, LIVER, S-9, AROCLOR 1254, Method: PREINCUBATION
[3] abbreviates: Test System: AMES SALMONELLA TYPHIMURIUM, Strain/Indicator: TA100, Metabolic Activation: NONE, Method: PREINCUBATION
The mark [4] stands for this setting: Test System: AMES SALMONELLA TYPHIMURIUM, Strain/Indicator: TA100, Metabolic Activation: RAT, LIVER, S-9, AROCLOR 1254, Method: PREINCUBATION
Setting [5] is: Test System: AMES SALMONELLA TYPHIMURIUM, Strain/Indicator: TA1535, Metabolic Activation: NONE, Method: PREINCUBATION
Where [6] appears, read: Test System: AMES SALMONELLA TYPHIMURIUM, Strain/Indicator: TA1535, Metabolic Activation: RAT, LIVER, S-9, AROCLOR 1254, Method: PREINCUBATION
[7] abbreviates: Test System: AMES SALMONELLA TYPHIMURIUM, Strain/Indicator: TA1537, Metabolic Activation: NONE, Method: PREINCUBATION
Where [8] appears, read: Test System: AMES SALMONELLA TYPHIMURIUM, Strain/Indicator: TA1537, Metabolic Activation: RAT, LIVER, S-9, AROCLOR 1254, Method: PREINCUBATION

“Also recorded” adds a separate entry of the source. The source made the active and inactive calls. How the calls were made is not given here.

For the compound `Brc1c(Br)c(Br)c(Oc2c(Br)c(Br)c(Br)c(Br)c2Br)c(Br)c1Br`, the mutagenic call was “inactive; negative; precipitation occurred at 160 and 500 ug/ml; also recorded: inactive; negative; precipitation occurred at 250 and 500 ug/ml” (End Point: IN VITRO CHROMOSOMAL ABERRATIONS, Test System: CHO CELLS, Metabolic Activation: NONE); “inactive; negative; precipitation occurred at 250 and 500 ug/ml” (End Point: IN VITRO CHROMOSOMAL ABERRATIONS, Test System: CHO CELLS, Metabolic Activation: RAT, LIVER, S-9, AROCLOR 1254); “inactive; negative” (Test System: AMES SALMONELLA TYPHIMURIUM, Strain/Indicator: TA98, Metabolic Activation: HAMSTER, LIVER, S-9, AROCLOR 1254, Method: PREINCUBATION); “inactive; negative” under setting [1]; “inactive; negative” (Test System: AMES SALMONELLA TYPHIMURIUM, Strain/Indicator: TA98, Metabolic Activation: RAT LIVER S-9, PHENOBARBITAL AND BETA-NAPHTHOFLAVONE, Method: PREINCUBATION); “inactive; negative” under setting [2]. Also, the mutagenic call is “inactive; negative” (Test System: AMES SALMONELLA TYPHIMURIUM, Strain/Indicator: TA100, Metabolic Activation: HAMSTER, LIVER, S-9, AROCLOR 1254, Method: PREINCUBATION); “inactive; negative” under setting [3]; “inactive; negative” (Test System: AMES SALMONELLA TYPHIMURIUM, Strain/Indicator: TA100, Metabolic Activation: RAT LIVER S-9, PHENOBARBITAL AND BETA-NAPHTHOFLAVONE, Method: PREINCUBATION); “inactive; negative” under setting [4]; “inactive; negative” (Test System: AMES SALMONELLA TYPHIMURIUM, Strain/Indicator: TA1535, Metabolic Activation: HAMSTER, LIVER, S-9, AROCLOR 1254, Method: PREINCUBATION); “inactive; negative” under setting [5]. In addition, the mutagenic call was “inactive; negative” (Test System: AMES SALMONELLA TYPHIMURIUM, Strain/Indicator: TA1535, Metabolic Activation: RAT LIVER S-9, PHENOBARBITAL AND BETA-NAPHTHOFLAVONE, Method: PREINCUBATION); “inactive; negative” under setting [6]; “inactive; negative” (Test System: AMES SALMONELLA TYPHIMURIUM, Strain/Indicator: TA1537, Metabolic Activation: HAMSTER, LIVER, S-9, AROCLOR 1254, Method: PREINCUBATION); “inactive; negative” under setting [7]; “inactive; negative” (Test System: AMES SALMONELLA TYPHIMURIUM, Strain/Indicator: TA1537, Metabolic Activation: RAT LIVER S-9, PHENOBARBITAL AND BETA-NAPHTHOFLAVONE, Method: PREINCUBATION); “inactive; negative” under setting [8]. The mutagenic call by setting is: (Test System: CHO/HGPRT, Strain/Indicator: CHO/GIEMSA, Metabolic Activation: NONE, Method: STANDARD PLATE) “inactive; negative”; (Test System: CHO/HGPRT, Strain/Indicator: CHO/GIEMSA, Metabolic Activation: RAT, LIVER, S-9, AROCLOR 1254, Method: STANDARD PLATE) “inactive; negative”; (Test System: E.COLI, Strain/Indicator: WP2UVRA/PKM101, Metabolic Activation: NONE, Method: PREINCUBATION) “inactive; negative”; (Test System: E.COLI, Strain/Indicator: WP2UVRA/PKM101, Metabolic Activation: RAT LIVER S-9, PHENOBARBITAL AND BETA-NAPHTHOFLAVONE, Method: PREINCUBATION) “inactive; negative”; (Test System: MOUSE LYMPHOMA, Strain/Indicator: L5178Y (TK+/TK-), Metabolic Activation: NONE, Method: SUSPENSION/PLATE) “inactive; negative”; (Test System: MOUSE LYMPHOMA, Strain/Indicator: L5178Y (TK+/TK-), Metabolic Activation: RAT, LIVER, S-9, AROCLOR 1254, Method: SUSPENSION/PLATE) “inactive; negative”.

As for `C=C(Cl)C=O`, the mutagenic call reads like this: (Test System: AMES SALMONELLA TYPHIMURIUM, Strain/Indicator: TA100, Metabolic Activation: NONE, Method: LIQUID INCUBATION) “active; positive”; (Test System: AMES SALMONELLA TYPHIMURIUM, Strain/Indicator: TA100, Metabolic Activation: NONE, Method: PREINCUBATION, LIQUID INCUBATION) “active; positive”; (Test System: AMES SALMONELLA TYPHIMURIUM, Strain/Indicator: TA1535, Metabolic Activation: NONE, Method: LIQUID INCUBATION) “active; positive”; (Test System: AMES SALMONELLA TYPHIMURIUM, Strain/Indicator: TA1535, Metabolic Activation: NONE, Method: PREINCUBATION, LIQUID INCUBATION) “active; positive”.

For the compound `Nc1ccc(CO)c([N+](=O)[O-])c1`, the mutagenic call under setting [1] is “active; positive”; the mutagenic call (Test System: AMES SALMONELLA TYPHIMURIUM, Strain/Indicator: TA98, Metabolic Activation: RAT, LIVER, S-9, PHENOBARBITAL AND 5,6-BENZOFLAVONE, Method: PREINCUBATION) is “active; positive”; the mutagenic call under setting [3] was “active; positive”; the mutagenic call (Test System: AMES SALMONELLA TYPHIMURIUM, Strain/Indicator: TA100, Metabolic Activation: RAT, LIVER, S-9, PHENOBARBITAL AND 5,6-BENZOFLAVONE, Method: PREINCUBATION) is “active; positive”.

As to `CCCCCCCCCCCCCCCCCCO`, the mutagenic call (Test System: AMES SALMONELLA TYPHIMURIUM, Strain/Indicator: TA98, Metabolic Activation: NONE, Method: STANDARD PLATE) was “inactive; negative”; the mutagenic call (Test System: AMES SALMONELLA TYPHIMURIUM, Strain/Indicator: TA98, Metabolic Activation: RAT, LIVER, S-9, AROCLOR 1254, Method: STANDARD PLATE) was “inactive; negative”; the mutagenic call (Test System: AMES SALMONELLA TYPHIMURIUM, Strain/Indicator: TA100, Metabolic Activation: NONE, Method: STANDARD PLATE) is “inactive; negative”; the mutagenic call (Test System: AMES SALMONELLA TYPHIMURIUM, Strain/Indicator: TA100, Metabolic Activation: RAT, LIVER, S-9, AROCLOR 1254, Method: STANDARD PLATE) was “inactive; negative”; the mutagenic call (Test System: AMES SALMONELLA TYPHIMURIUM, Strain/Indicator: TA1535, Metabolic Activation: NONE, Method: STANDARD PLATE) is “inactive; negative”; the mutagenic call (Test System: AMES SALMONELLA TYPHIMURIUM, Strain/Indicator: TA1535, Metabolic Activation: RAT, LIVER, S-9, AROCLOR 1254, Method: STANDARD PLATE) was “inactive; negative”. Moreover, the mutagenic call is, setting by setting: (Test System: AMES SALMONELLA TYPHIMURIUM, Strain/Indicator: TA1537, Metabolic Activation: NONE, Method: STANDARD PLATE) “inactive; negative”; (Test System: AMES SALMONELLA TYPHIMURIUM, Strain/Indicator: TA1537, Metabolic Activation: RAT, LIVER, S-9, AROCLOR 1254, Method: STANDARD PLATE) “inactive; negative”; (Test System: AMES SALMONELLA TYPHIMURIUM, Strain/Indicator: TA1538, Metabolic Activation: NONE, Method: STANDARD PLATE) “inactive; negative”; (Test System: AMES SALMONELLA TYPHIMURIUM, Strain/Indicator: TA1538, Metabolic Activation: RAT, LIVER, S-9, AROCLOR 1254, Method: STANDARD PLATE) “inactive; negative”; (Test System: E. COLI, Strain/Indicator: WP2, Metabolic Activation: NONE, Method: STANDARD PLATE) “inactive; negative”; (Test System: E. COLI, Strain/Indicator: WP2, Metabolic Activation: RAT, LIVER, S-9, AROCLOR 1254, Method: STANDARD PLATE) “inactive; negative”.

Consider `Oc1cc(O)c2cc(O)c(-c3cc(O)c(O)c(O)c3)[o+]c2c1`, for which the mutagenic call under setting [1] was “inactive; negative”; the mutagenic call under setting [2] is “inactive; negative”; the mutagenic call under setting [3] is “inactive; negative”; the mutagenic call under setting [4] is “inactive; negative”; the mutagenic call under setting [5] was “inactive; negative”; the mutagenic call under setting [6] is “inactive; negative”. Further, the mutagenic call reads like this: under setting [7], “inactive; negative”; under setting [8], “inactive; negative”; (Test System: AMES SALMONELLA TYPHIMURIUM, Strain/Indicator: TA1538, Metabolic Activation: NONE, Method: PREINCUBATION) “inactive; negative”; (Test System: AMES SALMONELLA TYPHIMURIUM, Strain/Indicator: TA1538, Metabolic Activation: RAT, LIVER, S-9, AROCLOR 1254, Method: PREINCUBATION) “inactive; negative”.
